{"source": "paper PMC12951562", "about": "“SH2scan: Mapping SH2 Domain-Ligand Binding Selectivity for Inhibitors and Degraders” (Journal of Medicinal Chemistry, 2026)", "biological_target": "T1, SH3BP2 (Homo sapiens, UniProt P78314)", "T1 construct": "made in house; host or cells: HEK293 (transient transfection), unpurified extract", "T1 sequence (P78314 1-561)": "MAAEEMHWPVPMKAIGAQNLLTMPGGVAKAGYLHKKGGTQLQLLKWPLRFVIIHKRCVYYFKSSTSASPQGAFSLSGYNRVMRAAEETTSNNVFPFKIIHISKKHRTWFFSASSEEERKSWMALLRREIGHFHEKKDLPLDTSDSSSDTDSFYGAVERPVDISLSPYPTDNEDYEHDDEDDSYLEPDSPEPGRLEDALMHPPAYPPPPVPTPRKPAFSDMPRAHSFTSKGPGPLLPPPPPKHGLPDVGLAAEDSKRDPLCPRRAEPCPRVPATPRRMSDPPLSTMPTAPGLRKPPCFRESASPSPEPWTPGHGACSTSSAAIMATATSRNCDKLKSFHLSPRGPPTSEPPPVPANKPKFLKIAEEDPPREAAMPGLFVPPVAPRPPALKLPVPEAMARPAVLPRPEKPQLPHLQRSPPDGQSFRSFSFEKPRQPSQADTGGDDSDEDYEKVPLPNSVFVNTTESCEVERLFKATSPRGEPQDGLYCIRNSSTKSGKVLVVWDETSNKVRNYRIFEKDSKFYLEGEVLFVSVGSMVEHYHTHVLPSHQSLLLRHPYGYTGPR", "assay": "biochemical", "type": "binding", "note": "Non-standard residues stand in square brackets, D forms with d. Residues, ends and D or L forms follow the SMILES beside them. pY = N[C@@H](Cc1ccc(OP(=O)(O)O)cc1)C(=O)O", "data": [{"molecule": "CC[C@H](C)[C@H](NC(=O)[C@H](CO)NC(=O)[C@H](CC(C)C)NC(=O)[C@H](CCCNC(=N)N)NC(=O)[C@H](CO)NC(=O)[C@H](CS)NC(C)=O)C(=O)N[C@@H](Cc1ccc(OP(=O)(O)O)cc1)C(=O)N[C@@H](CC(=O)O)C(=O)N[C@@H](CC(N)=O)C(=O)N[C@H](C(=O)N1CCC[C@H]1C(=O)NCC(N)=O)C(C)C", "note": "[Ac-CSRLSIpYDNVPG-NH2] (Ac-CSRLSI[pY]DNVPG-NH2)", "values": [{"measurement": "Kd", "value": "209 ± 10.1", "unit": "nM"}]}]}
